Experimental data: patent US7713996B2, “Indolyl derivatives which are L-CPT1 inhibitors” (Hoffmann-La Roche Inc., priority 2005, dated 2010)
pIC50: −log10 of the molar value.

The compounds below were run against T1, L-CPT1 (Homo sapiens, UniProt P50416) (assay: L-CPT1 inhibition, spectrophotometric CPT activity assay with DTNB (Ellman's reagent)). Conditions: human liver CPT1 expressed in P. pastoris, cell extracts; carnitine 500 μM, palmitoyl-CoA 80 μM, DTNB 300 μM, pH 7.4.
T1 construct: made in house; host or cells: Pichia pastoris strain X-33
T1 sequence (P50416 1-773): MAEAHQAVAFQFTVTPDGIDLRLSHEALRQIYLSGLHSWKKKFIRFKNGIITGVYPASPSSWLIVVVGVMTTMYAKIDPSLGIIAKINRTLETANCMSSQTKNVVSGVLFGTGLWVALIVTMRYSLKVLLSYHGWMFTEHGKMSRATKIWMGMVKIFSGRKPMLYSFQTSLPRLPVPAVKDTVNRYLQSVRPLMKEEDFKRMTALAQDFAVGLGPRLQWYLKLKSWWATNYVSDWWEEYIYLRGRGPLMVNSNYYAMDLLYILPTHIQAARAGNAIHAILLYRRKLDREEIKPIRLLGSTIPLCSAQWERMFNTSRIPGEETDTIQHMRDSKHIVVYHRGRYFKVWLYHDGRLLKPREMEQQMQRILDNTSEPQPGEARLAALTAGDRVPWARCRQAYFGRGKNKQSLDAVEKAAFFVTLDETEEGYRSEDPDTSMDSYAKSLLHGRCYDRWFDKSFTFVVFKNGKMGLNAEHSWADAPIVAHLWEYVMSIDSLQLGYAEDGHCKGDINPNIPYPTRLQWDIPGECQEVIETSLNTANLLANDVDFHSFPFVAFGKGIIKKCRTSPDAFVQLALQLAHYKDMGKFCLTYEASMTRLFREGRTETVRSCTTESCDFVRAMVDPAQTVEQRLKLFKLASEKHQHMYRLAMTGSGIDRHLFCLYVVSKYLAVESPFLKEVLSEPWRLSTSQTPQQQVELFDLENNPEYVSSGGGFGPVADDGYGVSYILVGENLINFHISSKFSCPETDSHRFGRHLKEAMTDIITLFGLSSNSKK
Type: biochemical
Protocol: The following tests were carried out in order to determine the activity of the compounds of the present invention. Background information on the performed assays can be found in: Jackson et al., 1999, Biochem. J. 341, 483-489 and Jackson et al., 2000, J. Biol. Chem. 275, 19560-19566.
Human liver and muscle CPT1 cDNAs and rat CPT2 cDNA were subcloned in pGAPZB or pGAPZA, respectively. These plasmids were used to transform P. pastoris strain X-33 via electroporation after the preparation of electrocompetent cells. High copy number clones were selected where necessary using 0.5 or 1 mg/ml Zeocin. Cultures for activity measurements were induced for 16 h in YPD medium (1% yeast extract, 2% peptone, 2% glucose). Crude cell extracts were prepared by disrupting the cells with glass beads or French Press, depending on fermenter sizes. After centrifugation, the cell-free extracts were resuspended in cell breaking buffer (50 mM Tris, pH7.4, 100 mM KCl, 1 mM EDTA) in the presence of a protease inhibitor cocktail, before aliquoting and freezing at −20° C.
CPT activity was measured using a spectrophotometric assay using 5,5′-dithio-bis-(2-nitrobenzoic acid) (DTNB) also called Ellman's reagent. The HS-CoA released on the formation of acylcarnitine from carnitine (500 μM) and palmitoyl-CoA (80 μM) reduced DTNB (300 μM) forming 5-mercapto-(2-nitrobenzoic acid) which absorbed at 410 nm with a molar coefficient extinction of 13600 M^−1·cm^−1. The assay buffer contained 120 mM KCl, 25 mM Tris, pH 7.4, 1 mM EDTA. This assay was used for the identification of selective inhibitors of the liver CPT1 isoform versus the muscle CPT1 and CPT2 isoforms.

pIC50	Compound
6.80	O=C(Nc1ccc(C(=O)O)c(Cl)c1)c1ccc2c(c1)N(S(=O)(=O)c1cccc(Cl)c1)CC2 [Example 1, 2-Chloro-4-{[1-(3-chloro-benzenesulfonyl)-2,3-dihydro-1H-indole-6-carbonyl]-amino}-benzoic acid]
7.14	COc1ccc(Cl)cc1S(=O)(=O)N1CCc2ccc(C(=O)Nc3ccc(C(=O)O)c(F)c3)cc21 [Example 12, 4-{[1-(5-Chloro-2-methoxy-benzenesulfonyl)-2,3-dihydro-1H-indole-6-carbonyl]-amino}-2-fluoro-benzoic acid]
7.69	COc1ccc(Cl)cc1S(=O)(=O)N1CCc2ccc(C(=O)Nc3ccc(C(=O)O)cc3)cc21 [Example 31, 4-{[1-(5-Chloro-2-methoxy-benzenesulfonyl)-2,3-dihydro-1H-indole-6-carbonyl]-amino}-benzoic acid]
